Calls of active or inactive are those of the source. The calls are words filed in the database; no cut-off is given here.
Legend:
[1] = target: Programmed cell death protein 1/Programmed cell death 1 ligand 1 (Homo sapiens, UniProt Q9NZQ7); assay: Inhibition of PD-1/PDL1 protein-protein interaction (unknown origin) by HTRF assay; type: protein-complex assay
A549 = assay: Antiproliferative activity against human A549 cells assessed as reduction in cell viability incubated for 48 hrs by CCK8 assay; type: functional, cell-based; conditions: A549, 48 h
NCI-H1299 = assay: Antiproliferative activity against human H1299 cells assessed as reduction in cell viability incubated for 48 hrs by CCK8 assay; type: functional, cell-based; conditions: NCI-H1299, 48 h
B16-F10 = assay: Antiproliferative activity against mouse B16-F10 cells assessed as reduction in cell viability incubated for 48 hrs by CCK8 assay; type: functional, cell-based; conditions: B16-F10, 48 h
MDA-MB-231 = assay: Antiproliferative activity against human MDA-MB-231 cells assessed as reduction in cell viability incubated for 48 hrs by CCK8 assay; type: functional, cell-based; conditions: MDA-MB-231, 48 h
Jurkat = assay: Antiproliferative activity against human jurkat cells assessed as reduction in cell viability incubated for 48 hrs by CCK8 assay; type: functional, cell-based
Homo sapiens [2] = species: Homo sapiens; assay: Inhibition of PD1/PDL1 protein-protein interaction in human PBMC-derived CD3-positive T cells co-cultured with human Hep3B cells expressing human PDL1/OS-8 assessed as increase in IFN-gamma secretion at 3.3 uM measured after 72 hrs by ELISA relative to control; parameters: scale not given: the % may be the effect or the level left
Homo sapiens [3] = species: Homo sapiens; assay: Inhibition of PD1/PDL1 protein-protein interaction in human PBMC-derived CD3-positive T cells co-cultured with human Hep3B cells expressing human PDL1/OS-8 assessed as increase in IFN-gamma secretion measured after 72 hrs by ELISA relative to control; conditions: dose 3.3-10 µM
[4] = target: T1, Protein cereblon/Programmed cell death 1 ligand 1 (Homo sapiens) (UniProt Q9NZQ7+Q96SW2); assay: Protac like activity at CRBN/PD-L1 in human MDA-MB-231 cells assessed as reduction in cell surface PD-L1 expression at 10 uM measured after 24 hrs by flow cytometry relative to control; type: functional, cell-based; parameters: scale not given: the % may be the effect or the level left
T1 sequence (Q96SW2 whole entry, looked up): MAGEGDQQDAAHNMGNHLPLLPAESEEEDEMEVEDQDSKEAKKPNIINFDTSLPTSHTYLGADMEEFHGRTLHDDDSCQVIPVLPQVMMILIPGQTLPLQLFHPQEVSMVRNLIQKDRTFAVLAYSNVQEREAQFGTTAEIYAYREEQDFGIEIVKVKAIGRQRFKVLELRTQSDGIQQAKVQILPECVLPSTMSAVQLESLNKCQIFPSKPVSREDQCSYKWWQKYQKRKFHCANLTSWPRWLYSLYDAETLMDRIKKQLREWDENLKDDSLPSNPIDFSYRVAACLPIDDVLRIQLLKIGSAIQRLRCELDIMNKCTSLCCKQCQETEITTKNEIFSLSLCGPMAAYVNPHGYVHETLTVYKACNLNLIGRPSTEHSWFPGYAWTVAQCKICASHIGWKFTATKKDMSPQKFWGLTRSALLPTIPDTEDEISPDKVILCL
T1 sequence (Q9NZQ7 whole entry, looked up): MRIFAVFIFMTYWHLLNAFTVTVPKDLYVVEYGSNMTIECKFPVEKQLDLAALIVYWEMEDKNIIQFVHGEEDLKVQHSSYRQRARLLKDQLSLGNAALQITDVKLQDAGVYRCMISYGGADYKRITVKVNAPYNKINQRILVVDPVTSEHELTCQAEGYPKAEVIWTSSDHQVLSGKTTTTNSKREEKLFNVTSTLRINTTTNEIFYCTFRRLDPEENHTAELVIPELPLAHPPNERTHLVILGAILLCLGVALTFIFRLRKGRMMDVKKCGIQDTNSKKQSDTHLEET

[5] = target: T1, Protein cereblon/Programmed cell death 1 ligand 1 (Homo sapiens); assay: Protac like activity at CRBN/PD-L1 in human MDA-MB-231 cells assessed as reduction in cell surface PD-L1 expression at 1 uM measured after 24 hrs by Western blotting analysis relative to control; type: functional, cell-based; parameters: scale not given: the % may be the effect or the level left
[6] = target: T1, Protein cereblon/Programmed cell death 1 ligand 1 (Homo sapiens); assay: Protac like activity at CRBN/PD-L1 in human MDA-MB-231 cells assessed as reduction in cell surface PD-L1 expression at 10 uM measured after 24 hrs by Western blotting analysis relative to control; type: functional, cell-based; parameters: scale not given: the % may be the effect or the level left
[7] = target: T1, Protein cereblon/Programmed cell death 1 ligand 1 (Homo sapiens); assay: Protac like activity at CRBN/PD-L1 in human MDA-MB-231 cells assessed as reduction in cell surface PD-L1 expression at 1 to 10 uM in presence of bafilomycin lysosomal measured after 24 hrs by Western blotting analysis relative to control; type: functional, cell-based; conditions: dose 1-10 µM
[8] = target: T1, Protein cereblon/Programmed cell death 1 ligand 1 (Homo sapiens); assay: Protac like activity at CRBN/PD-L1 in human MDA-MB-231 cells assessed as reduction in cell surface PD-L1 expression at 1 to 10 uM in presence of MG132 proteasome inhibitor measured after 24 hrs by Western blotting analysis relative to control; type: functional, cell-based; conditions: dose 1-10 µM

Chain of Programmed cell death protein 1/Programmed cell death 1 ligand 1 (Q15116 whole entry): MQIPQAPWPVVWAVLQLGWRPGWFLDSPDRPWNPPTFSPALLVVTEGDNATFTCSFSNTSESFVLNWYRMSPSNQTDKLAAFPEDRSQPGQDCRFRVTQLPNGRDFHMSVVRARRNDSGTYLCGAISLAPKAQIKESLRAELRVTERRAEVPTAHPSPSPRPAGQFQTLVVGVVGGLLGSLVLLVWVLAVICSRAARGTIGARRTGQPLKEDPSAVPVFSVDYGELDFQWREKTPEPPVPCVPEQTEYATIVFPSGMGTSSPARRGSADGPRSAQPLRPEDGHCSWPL
Chain of Programmed cell death protein 1/Programmed cell death 1 ligand 1 (Q9NZQ7 whole entry): as the sequence (Q9NZQ7 whole entry, looked up) above

Question: For `Cc1c(COc2ccc(CN3CCCCC3C(=O)N3CCN(C(=O)CCCC(=O)Nc4cccc5c4C(=O)N(C4CCC(=O)NC4=O)C5=O)CC3)cc2Br)cccc1-c1ccccc1` (configuration not stated), which IC50 [1] is on record?
Answer: Its IC50 is greater than 200 nM.

Question: What does the source list for `Cc1c(COc2cc(OCc3cccc(C#N)c3)c(CN3CCCCC3C(=O)N3CCN(C(=O)CCC(=O)Nc4cccc5c4C(=O)N(C4CCC(=O)NC4=O)C5=O)CC3)cc2Cl)cccc1-c1ccccc1` (configuration not stated)?
Answer: IC50 [1]: 44.5 nM; IC50 (A549): > 10000 nM; IC50 (NCI-H1299): 9700 nM; IC50 (B16-F10): 11400 nM; IC50 (MDA-MB-231): > 10000 nM; IC50 (Jurkat): > 10000 nM

Question: `Cc1c(COc2cc(OCc3cccc(C#N)c3)c(CN3CCCCC3C(=O)NCCCCCNc3cccc4c3C(=O)N(C3CCC(=O)NC3=O)C4=O)cc2Cl)cccc1-c1ccc2c(c1)OCCO2` (configuration not stated) was tested. Which IC50 [1] did it give?
Answer: The IC50 was 193 nM.

Question: For `Cc1c(COc2cc(OCc3cccc(C#N)c3)c(CN3CCCCC3C(=O)NCCCNc3cccc4c3C(=O)N(C3CCC(=O)NC3=O)C4=O)cc2Cl)cccc1-c1ccc2c(c1)OCCO2` (configuration not stated), which IC50 [1] is on record?
Answer: Its IC50 is 135 nM.

Question: For `Cc1c(COc2cc(OCc3cccc(C#N)c3)c(CN3CCCCC3C(=O)O)cc2Cl)cccc1-c1ccc2c(c1)OCCO2` (configuration not stated), which IC50 [1] is on record?
Answer: The IC50 was 56.6 nM.

Question: Which IC50 [1] does the source give for `Cc1c(COc2cc(OCc3cccc(C#N)c3)c(CN3CCCCC3C(=O)NCCNC(=O)CCCC(=O)Nc3cccc4c3C(=O)N(C3CCC(=O)NC3=O)C4=O)cc2Cl)cccc1-c1ccc2c(c1)OCCO2` (configuration not stated) here?
Answer: The IC50 was greater than 200 nM.

Question: Which IC50 [1] does the source give for `Cc1c(COc2cc(OCc3cccc(C#N)c3)c(CN3CCCCC3C(=O)N3CCN(C(=O)CCCC(=O)Nc4cccc5c4C(=O)N(C4CCC(=O)NC4=O)C5=O)CC3)cc2Cl)cccc1-c1ccc2c(c1)OCCO2` (configuration not stated) here?
Answer: The IC50 was 39.2 nM.

Question: And the IC50 (A549)?
Answer: The IC50 was greater than 10000 nM.

Question: And the IC50 (NCI-H1299)?
Answer: The IC50 was greater than 10000 nM.

Question: And the IC50 (B16-F10)?
Answer: The IC50 was greater than 10000 nM.

Question: What about the IC50 (MDA-MB-231) of the same compound?
Answer: Its IC50 is greater than 10000 nM.

Question: And the IC50 (Jurkat)?
Answer: Its IC50 is greater than 10000 nM.

Question: And the Activity (Homo sapiens [2])?
Answer: Its Activity is 215%.

Question: What about the Activity (Homo sapiens [3]) of the same compound?
Answer: Its Activity is “Dose-dependent effect”.

Question: What about the Activity [4] of the same compound?
Answer: The Activity was 14%.

Question: What about the Activity [5] of the same compound?
Answer: Its Activity is 21%.

Question: And the Activity [6]?
Answer: Its Activity is 35%.

Question: And the Activity [7]?
Answer: Its Activity is “inactive”.

Question: And the Activity [8]?
Answer: The Activity was “Active”.

Question: `Cc1c(COc2cc(OCc3cccc(C#N)c3)c(CN3CCCCC3C(=O)NCCCCCNC(=O)CCCC(=O)Nc3cccc4c3C(=O)N(C3CCC(=O)NC3=O)C4=O)cc2Cl)cccc1-c1ccccc1` (configuration not stated) was tested. Which IC50 [1] did it give?
Answer: The IC50 was greater than 200 nM.

Question: For `Cc1c(COc2cc(OCc3cccc(C#N)c3)c(CN3CCCCC3C(=O)NCCNC(=O)COCC(=O)Nc3cccc4c3C(=O)N(C3CCC(=O)NC3=O)C4=O)cc2Cl)cccc1-c1ccc2c(c1)OCCO2` (configuration not stated), which IC50 [1] is on record?
Answer: Its IC50 is greater than 200 nM.

Question: With `Cc1c(COc2cc(OCc3cccc(C#N)c3)c(CN3CCCCC3C(=O)NCCCCNc3cccc4c3C(=O)N(C3CCC(=O)NC3=O)C4=O)cc2Cl)cccc1-c1ccc2c(c1)OCCO2` (configuration not stated) as the compound, how does the IC50 [1] read?
Answer: Its IC50 is 103 nM.

Question: What about the IC50 (A549) of the same compound?
Answer: The IC50 was greater than 10000 nM.

Question: What about the IC50 (NCI-H1299) of the same compound?
Answer: The IC50 was greater than 10000 nM.

Question: And the IC50 (B16-F10)?
Answer: Its IC50 is greater than 10000 nM.

Question: And the IC50 (MDA-MB-231)?
Answer: The IC50 was greater than 10000 nM.

Question: What about the IC50 (Jurkat) of the same compound?
Answer: The IC50 was greater than 10000 nM.

Question: How did the IC50 [1] turn out when `Cc1c(COc2cc(OCc3cccc(C#N)c3)c(CN3CCCCC3C(=O)NCCNC(=O)CCC(=O)Nc3cccc4c3C(=O)N(C3CCC(=O)NC3=O)C4=O)cc2Cl)cccc1-c1ccc2c(c1)OCCO2` (configuration not stated) was run?
Answer: The IC50 was greater than 200 nM.

Question: With `Cc1c(COc2cc(OCc3cccc(C#N)c3)c(CN3CCCCC3C(=O)NCCNC(=O)CCC(=O)Nc3cccc4c3C(=O)N(C3CCC(=O)NC3=O)C4=O)cc2Cl)cccc1-c1ccccc1` (configuration not stated) as the compound, how does the IC50 [1] read?
Answer: The IC50 was 98.8 nM.

Question: How did the IC50 [1] turn out when `Cc1c(COc2cc(OCc3cccc(C#N)c3)c(CN3CCCCC3C(=O)NCCCCNC(=O)CCCC(=O)Nc3cccc4c3C(=O)N(C3CCC(=O)NC3=O)C4=O)cc2Cl)cccc1-c1ccccc1` (configuration not stated) was run?
Answer: Its IC50 is 121 nM.

Question: How did the IC50 [1] turn out when `Cc1c(COc2cc(OCc3cccc(C#N)c3)c(CN3CCCCC3C(=O)NCCNc3cccc4c3C(=O)N(C3CCC(=O)NC3=O)C4=O)cc2Cl)cccc1-c1ccc2c(c1)OCCO2` (configuration not stated) was run?
Answer: The IC50 was 144 nM.

Question: Which IC50 [1] does the source give for `Cc1c(COc2cc(OCc3cccc(C#N)c3)c(CN3CCCCC3C(=O)NCCCNc3cccc4c3C(=O)N(C3CCC(=O)NC3=O)C4=O)cc2Cl)cccc1-c1ccccc1` (configuration not stated) here?
Answer: Its IC50 is 97.3 nM.

— ChEMBL document CHEMBL4765316, “Discovery of novel resorcinol diphenyl ether-based PROTAC-like molecules as dual inhibitors and degraders of PD-L1” (Eur J Med Chem, 2020)
